Reference: PMC5343891, “Cell Imaging Counting as a Novel Ex Vivo Approach for Investigating Drug-Induced Hepatotoxicity in Zebrafish Larvae” (International Journal of Molecular Sciences, 2017)

What was measured:
[1] = Pharmacokinetics in zebrafish larvae (larval extracts, UHPLC-UV); assay type: in vivo, Zebrafish (Danio rerio); details: 0-24 h post treatment; for course of larval concentration after injection: yolk and pericardial injection at MD
Method: At given time points (0, 2, 6, 12 and 24 h), treated larvae were collected and transferred to 1.5 mL Eppendorf® tubes pre-filled with acid washed glass beads (diameter: 710–1180 µm, Sigma-Aldrich) and 270 µL of extraction medium (1:2 water:methanol, each containing 0.1% formic acid) was added (10 larvae per Eppendorf® tube). Samples were centrifuged for 15 s at 14,100× g (Eppendorf Mini Spin Plus, Hamburg, Germany) to insure high homogenization efficiency. Subsequently, the samples were homogenized with ultrasonication (Diagenode Bioruptor Plus, Seraing, Belgium) at +4 °C and high energy input setting to ensure the highest possible disruption of the cells. The overall treatment time was 15 min spread over 30 cycles of 30 s treatment followed by pauses of 30 s in-between. Six samples were homogenized during each treatment cycle. Subsequently, treated samples were centrifuged at 14,100× g for 15 min and 200 µL of supernatant was transferred to an empty Eppendorf tube (1.5 mL) and stored on ice until all samples were processed. All samples were then placed into a vacuum oven (Model 1410, Sheldon Manufacturing Inc., Cornelius, OR, USA) and evaporated until dry at +45 °C during 45 min. The samples were then reconstituted with a mobile phase-like solution (6% acetonitrile in water), vortexed for 5 s, resuspended at least three times with a micropipette and sonicated (Branson 3510, Danbury, CT, USA) for 15 min. Finally, samples were transferred into amber glass vials (Supelco, Bellefonte, PA, USA) with 250 µL glass inserts (Supelco) for further analysis on UHPLC-UV.
An Agilent 1290 UHPLC system (Agilent, Waldbronn, Germany) consisting of an autosampler, quaternary pump, degasser and DAD-detector (diode array detector) was used for all uptake measurements. […] All calculations concerning the evaluation of recorded data were made in MS Excel (Microsoft Corporation, Seattle, WA, USA). […]
The larval amount of hepatotoxicant (mg/kg) was calculated assuming the weight of a 3 or 4 dpf Tg(fabp10a:DsRed) zebrafish larva to be 0.25 mg.

[2] = system: Tg(fabp10a:DsRed) zebrafish larvae; test: Lethality in zebrafish larvae: maximum non-toxic drug concentration/dose (MC/MD); assay type: in vivo, Zebrafish (Danio rerio); details: for MC: maximum non-toxic drug concentration: immersion 3-6 dpf, less than 10% larval death at 6 dpf, or highest soluble concentration; for lethality (larval death): immersion, yolk and pericardial injection, up to highest soluble concentration/dose, 6 dpf; for MD: maximum non-toxic drug dose: less than 10% larval death at 6 dpf, or highest dose injectable without precipitation
Excerpt: The results are expressed as percentage of dead larvae relative to the total larvae (mean ± SD).

[3] = system: Tg(fabp10a:DsRed) zebrafish larvae; test: Hepatotoxicity by visual analysis of liver morphology using fluorescence microscopy; assay type: in vivo, Zebrafish (Danio rerio); details: 6 dpf; for Hepatotoxicity detected: Morphology: vs vehicle control; as to Hepatotoxicity detected: Morphology: key: Bold S: statistically significant difference; NS: no statistically significant difference
Method: We observed a range of abnormal liver phenotypes including reduced and enlarged livers (Figure 2). […].
The results are expressed as the percentage of larvae having normal or abnormal liver morphology.
(§1) At 6 dpf treated larvae were anesthetized by 0.5 mM tricaine in a 6 well-plate (Falcon®) and arranged so that they were lying on their right sides with their heads facing left. This enabled us to view the left lateral side of the larvae and the larger lobe of the liver that was scored in a blinded manner under a fluorescence microscope (Leica MZ10F-Dsred channel, 40× magnification, Leica Microsystems, Wetzlar, Germany). Livers were considered abnormal if their typical globular structure underwent gross morphological changes. Images of the livers (including a scale bar) were imported to ImageJ software (National Institutes of Health, Bethesda, MD, USA) for determining the liver size. To that end, the picture was set to scale (functions: analyze, set scale), the liver area extracted (functions: split channel, threshold) and the area calculated (function: analyze particles, settings: size = 0−infinity, circularity = 0.00−1.00).

[4] = system: Tg(fabp10a:DsRed) zebrafish larvae; test: Hepatotoxicity by size analysis of fluorescent 2D liver images (ImageJ); assay type: in vivo, Zebrafish (Danio rerio); details: for Hepatotoxicity detected: Liver size: 6 dpf, vs vehicle control; for change in liver size: any of the administration routes, vs non-treated animals; as to Hepatotoxicity detected: Liver size: key: Bold S: statistically significant difference; NS: no statistically significant difference
Method: Next, the 2D images obtained in the previous section were used to analyze the size of the fluorescent livers by ImageJ software. […].
as §1

[5] = system: Tg(fabp10a:DsRed) zebrafish larvae; test: Hepatotoxicity by quantification of DsRed-labeled hepatocytes using cell imaging counting (CIC); details: for change in amount of recovered hepatocytes: any of the administration routes, vs non-treated animals; for Hepatotoxicity detected: number of Hepatocytes (CIC): 6 dpf, vs vehicle control
Method: We then used CIC and quantified ex vivo DsRed-labeled hepatocytes after dispase-digestion of hepatotoxicant-exposed larvae. […] Analysis was performed after three days of treatment (immersion) or three days after treatment (injection), at 6 dpf. A total of 10 and 12 larvae were used individually per condition for immersion and injections, respectively. The experiment was performed in triplicate and data were pooled. […] Means ± SD of the number of hepatocytes per larva are shown.
Compounds tested were dissolved in DMSO (stock solution) and then further diluted in Danieau’s solution with a final concentration of 1% DMSO or diluted with 0.9% NaCl solution (1:1 ratio) to obtain a working solution for immersion and yolk/pericardial injections, respectively. At 3 dpf, hatched Tg(fabp10a:DsRed) larvae were transferred to 24-well plates (Falcon®, Corning, Lasne, Belgium) with each well containing 10 larvae in 1 mL Danieau’s solution and the dissolved drug or the vehicle control for immersion. For yolk injections, and pericardial injections into the bloodstream via the common cardinal veins, 12 larvae were used for each condition, and each larva was injected with 1 nL of solution at 3 dpf.
In order to digest the larvae and separate hepatocytes from the liver, larvae were transferred to 96 well-plates (Falcon®, Corning, Lasne, Belgium) with one larva per well and incubated with 200 µL 2.5 mg dispase/mL DPBS for 4 h. […] The hepatocytes were dispersed by pipetting up and down 20 times with a 1 mL automatic pipette. After digestion, hepatocytes were positioned at the bottom of the well by centrifugation at 200× g (Jouan CR412 centrifuge, Jouan, Saint-Herblain, France) for 15 min.
Fluorescent hepatocytes present in the wells were imaged and counted on an IN Cell Analyzer 2000 using software IN Cell Investigator Developer Toolbox (GE Healthcare, Machelen, Belgium), with a 2×/0.1 NA lens, DsRed fluorescence channel, a 0.1-s exposure time, and the intensity segmentation (172-4095) set to ensure hepatocytes were recognized selectively.
Differences between drug-treated groups and control vehicle control (VHC) regarding numbers of hepatocytes and liver sizes were analyzed for statistical significance using an ANOVA test. Regarding the liver morphology, Fisher’s exact test was used for the analysis. p < 0.05 was considered statistically significant.

[6] = immersion, MC and lower concentrations
[7] = all three administration routes, MC/MD and dilutions

SMILES | course of larval concentration after injection [1] | MC: maximum non-toxic drug concentration [2] | lethality (larval death) [2] | MD: maximum non-toxic drug dose ([2]; pericardial injection at 3 dpf) | MD: maximum non-toxic drug dose ([2]; yolk injection at 3 dpf) | Hepatotoxicity detected: Morphology ([3]; immersion, MC) | Hepatotoxicity detected: Morphology ([3]; yolk injection, MD) | hepatotoxicity by liver size [4, 6] | Hepatotoxicity detected: Liver size ([4]; immersion, MC) | abnormal liver morphology [3, 7] | change in amount of recovered hepatocytes [5] | change in liver size [4] | also measured
CC(=O)Nc1ccc(O)cc1 [Paracetamol] | fully excreted or metabolized after 24 h | 7500 µM | caused larval death in several of the conditions tested | 604 ^1 mg/kg | 604 ^1 mg/kg | S | S | hepatotoxic only at their MC | S | – | – | – | half-life ([1]; Tg(fabp10a:DsRed), zebrafish, in vivo, after both yolk and pericardial injections (604 mg/kg), read-out: half-life of larval concentration): 6 to 8 h; Hepatotoxicity detected: Morphology ([3]; immersion, ½ MC): S; abnormal liver morphology ([3]; pericardial injections): no significant toxic effects; Hepatotoxicity detected: Morphology ([3]; yolk injection, ½ MD): S; hepatotoxicity by liver size ([4]; injected (yolk or pericardial)): exhibited an effect at its MD after yolk administration; Hepatotoxicity detected: Liver size ([4]; yolk injection, MD): S
C[C@@H]1O[C@@H](OC[C@H]2O[C@@H](Oc3c(-c4ccc(O)c(O)c4)oc4cc(O)cc(O)c4c3=O)[C@H](O)[C@@H](O)[C@@H]2O)[C@H](O)[C@H](O)[C@H]1O [Rutin] | – | 200 ^1 µM | did not induce lethality | 150 ^1 mg/kg | 150 ^1 mg/kg | – | – | – | – | did not induce abnormal liver morphology | did not induce any change in the amount of recovered hepatocytes | did not induce any change in liver size | –
OC[C@H]1O[C@@](CO)(O[C@H]2O[C@H](CO)[C@@H](O)[C@H](O)[C@H]2O)[C@@H](O)[C@@H]1O [Sucrose] | – | 8000 ^1 µM | did not induce lethality | 548 ^1 mg/kg | 548 ^1 mg/kg | – | – | – | – | did not induce abnormal liver morphology | did not induce any change in the amount of recovered hepatocytes | did not induce any change in liver size | –
CN(C)[C@@H]1C(O)=C(C(N)=O)C(=O)[C@@]2(O)C(O)=C3C(=O)c4c(O)cccc4[C@@](C)(O)[C@H]3C[C@@H]12 [Tetracycline] | remained nearly constant | – | – | 384 ^1 mg/kg | 192 mg/kg | S | S | hepatotoxic only at their MC | S | induced abnormal liver morphology in a dose-dependent manner | – | – | Hepatotoxicity detected: Morphology ([3]; pericardial injection, MD): S; Hepatotoxicity detected: Morphology ([3]; pericardial injection, ½ MD): S; Hepatotoxicity detected: number of Hepatocytes (CIC) ([5]; immersion, MC): S; hepatotoxicity by CIC hepatocyte count ([5]; immersion, three concentrations): hepatotoxic effects induced by all three tetracycline concentrations; Hepatotoxicity detected: number of Hepatocytes (CIC) ([5]; immersion, ¼ MC): S; Hepatotoxicity detected: number of Hepatocytes (CIC) ([5]; immersion, ½ MC): S; hepatotoxicity by CIC hepatocyte count ([5]; injected doses (yolk or pericardial)): showed no effects
